Assay [1] concerns the target Recombinant human GST-tagged Kat6b protein (431-end). Kind of assay: Kat6b activity assay (TR-FRET, acetylation of biotinylated Histone-H4-derived peptide). The note with it: 30 mins at 22° C., read-out: KAT6B activity assay IC50 [mol/l] (arithmetic mean). The assay is classed as biochemical. In general terms: TR-FRET usually uses a lanthanide donor and a delayed reading to cut background.

The test system of assay [2] is ESR1 transcription (luciferase signal in MVLN cells). Briefly: Repression of ESR1 transcription, luciferase reporter in MVLN cells. Particulars: inhibition of luciferase signal in MVLN cells, arithmetic mean. The assay is classed as cell-based. The gist of the method:
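MVLN cells (constitutive ER, stably carrying a Vitellogenin A2 hormone-responsive element–luciferase reporter) treated in duplicate; luciferase read after 24 h. Cell density checked by Alamar Blue fluorescence (530/590 nm) after 2 h to exclude cell-loss effects.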
(A reporter such as luciferase makes a cellular process visible.)

The subject of another assay is ZR-75-1 cells. Briefly: Proliferation assay ZR-75-1 (Alamar Blue, 144 h). The assay is classed as cell-based. Particulars: arithmetic mean, read-out: ZR75-1 proliferation assay, EC50 [M] (arithmetic mean). The gist of the method:
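Cells seeded at 3000/well in RPMI 1640 with 2.5% FBS and treated 24 h later across 2.0×10E-5 to 2.0×10E-9 M (9 dilutions, 0.2% DMSO, triplicate). After 144 h at 37 °C, 5% CO2, viability read by Alamar Blue fluorescence at 590 nm following 2 h reagent incubation.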
A general note: The colour change of resazurin is a common sign of viable cells or microbes.

The target of assay [3] is Recombinant human His-tagged Kat6a protein (amino acids 194-810) (Homo sapiens (Human), UniProt Q92794). Briefly: Kat6a activity assay (TR-FRET, acetylation of biotinylated Histone-H4-derived peptide). The assay is classed as biochemical. The note with it: 60 mins at 22° C., read-out: KAT6A-DPF/HAT domain IC50 [mol/l] (arithmetic mean). The gist of the method: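 Sf9-expressed human His-Kat6a (aa 194-810) incubated 60 min at 22 °C with compounds (0.01-20 μM) in Tris pH 8 buffer containing 220 nM biotinylated H4 peptide (aa 1-24) and 600 nM acetyl-CoA. Acetyl-K8 detected by TR-FRET (665/620 nm ratio); IC50 by four-parameter fit versus DMSO controls.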
Sequence of Recombinant human His-tagged Kat6a protein (amino acids 194-810) (Q92794 194-810): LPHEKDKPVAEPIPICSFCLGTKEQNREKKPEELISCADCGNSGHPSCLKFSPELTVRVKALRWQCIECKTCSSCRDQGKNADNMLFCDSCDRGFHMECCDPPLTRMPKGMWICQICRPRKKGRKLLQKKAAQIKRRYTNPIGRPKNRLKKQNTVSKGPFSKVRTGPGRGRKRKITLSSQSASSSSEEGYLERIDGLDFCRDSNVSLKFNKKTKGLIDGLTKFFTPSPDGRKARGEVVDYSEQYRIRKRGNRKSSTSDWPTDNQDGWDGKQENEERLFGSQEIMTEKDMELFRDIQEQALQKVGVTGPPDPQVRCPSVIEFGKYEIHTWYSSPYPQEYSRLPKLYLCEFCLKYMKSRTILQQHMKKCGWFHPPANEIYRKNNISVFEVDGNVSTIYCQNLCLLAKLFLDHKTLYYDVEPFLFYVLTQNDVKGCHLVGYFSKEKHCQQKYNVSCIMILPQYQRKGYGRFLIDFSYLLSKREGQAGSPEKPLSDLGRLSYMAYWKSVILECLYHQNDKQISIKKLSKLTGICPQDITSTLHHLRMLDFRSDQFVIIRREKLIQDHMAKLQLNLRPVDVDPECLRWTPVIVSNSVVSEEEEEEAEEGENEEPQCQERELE

A further assay deals with MDA-MB-436 cells. Kind of assay: Proliferation assay MDA-MB-436, negative control cell line (Alamar Blue, 144 h). The assay is classed as cell-based. Particulars: arithmetic mean. The method, boiled down:
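MDA-MB-436 cells (3000/well, DMEM/Ham's F12 with 2.5% FBS) treated 24 h after plating with compounds at 2.0×10E-5 to 2.0×10E-9 M (9 dilutions, 0.2% DMSO), triplicates, 144 h at 37 °C, 5% CO2. Viability by Alamar Blue, 2 h, fluorescence at 590 nm.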

The mark [4] stands for this setting: Homo sapiens, MDA-MB-436, 144 h.

The structures appear in SMILES notation. Read-outs that look alike come from different tables or passages of the source.

In the case of `CN(CC1CC1)c1ccc2cc(C(=O)NS(=O)(=O)c3ccccc3-c3ccccc3)oc2c1` [Example 40, N-([1,1′-Biphenyl]-2-sulfonyl)-6-[(cyclopropylmethyl)(methyl)amino]-1-benzofuran-2-carboxamide], the IC50 in assay [1] is 1420 nM; in assay [2] (Homo sapiens, MVLN) it was > 20000 nM; in assay [3] it was 1150 nM. For the same compound, the EC50 with ZR-75-1 cells (Homo sapiens, ZR-75-1, 144 h) is > 2e-05 M; with MDA-MB-436 cells (setting [4]), > 20000 nM.

As to `CCCCN(CCCC)c1ccc2cc(C(=O)NS(=O)(=O)c3ccccc3-c3ccccc3)oc2c1` [Example 41, N-([1,1′-Biphenyl]-2-sulfonyl)-6-(dibutylamino)-1-benzofuran-2-carboxamide], the IC50 in assay [1] amounted to 2560 nM; in assay [2] (Homo sapiens, MVLN), 14900 nM; in assay [3] it was 2310 nM. Besides, the EC50 is 8.3e-06 M in the assay with ZR-75-1 cells (Homo sapiens, ZR-75-1, 144 h) and 18500 nM in the assay with MDA-MB-436 cells (setting [4]).

Regarding `Nc1ccc2cc(C(=O)NS(=O)(=O)c3ccccc3-c3ccccc3)oc2c1` [Example 42, 6-Amino-N-([1,1′-biphenyl]-2-sulfonyl)-1-benzofuran-2-carboxamide], the IC50 was 3590 nM in assay [1]; > 20000 nM in assay [2] (Homo sapiens, MVLN); 1070 nM in assay [3]. Besides, the EC50 was > 2e-05 M in the assay with ZR-75-1 cells (Homo sapiens, ZR-75-1, 144 h) and > 20000 nM in the assay with MDA-MB-436 cells (setting [4]).

On to `CC(=O)Nc1ccc2cc(C(=O)NS(=O)(=O)c3ccccc3-c3ccccc3)oc2c1` [Example 43, 6-Acetamido-N-([1,1′-biphenyl]-2-sulfonyl)-1-benzofuran-2-carboxamide], for which the IC50 was 10300 nM in assay [1]; > 20000 nM in assay [2] (Homo sapiens, MVLN); 5140 nM in assay [3]. In addition, the EC50 with ZR-75-1 cells (Homo sapiens, ZR-75-1, 144 h) is > 2e-05 M; with MDA-MB-436 cells (setting [4]), > 20000 nM.

With `O=C(NS(=O)(=O)c1ccccc1-c1ccccc1)c1cc2ccc(N3CCCC3)cc2o1` [Example 45, N-([1,1′-Biphenyl]-2-sulfonyl)-6-(pyrrolidin-1-yl)-1-benzofuran-2-carboxamide], the IC50 was found to be 1480 nM in assay [1]; 6450 nM in assay [2] (Homo sapiens, MVLN); 3600 nM in assay [3]. Also, the EC50 in the assay on ZR-75-1 cells (Homo sapiens, ZR-75-1, 144 h) is 1.19e-05 M; in the assay with MDA-MB-436 cells (setting [4]), > 20000 nM.

Regarding `O=C(NS(=O)(=O)c1ccccc1-c1ccccc1)c1cc2ccc(N3CCCCC3)cc2o1` [Example 47, N-([1,1′-Biphenyl]-2-sulfonyl)-6-(piperidin-1-yl)-1-benzofuran-2-carboxamide], the IC50 in assay [1] was 15900 nM; in assay [2] (Homo sapiens, MVLN), > 20000 nM; in assay [3], 7800 nM. Further, the EC50 in the assay with ZR-75-1 cells (Homo sapiens, ZR-75-1, 144 h) is > 2e-05 M; with MDA-MB-436 cells (setting [4]) it was > 20000 nM.

Regarding `CN(C)c1ccc2cc(C(=O)NS(=O)(=O)c3ccccc3-c3cccc(Cl)c3)sc2c1` [Example 49, N-(3′-Chloro[1,1′-biphenyl]-2-sulfonyl)-6-(dimethylamino)-1-benzothiophene-2-carboxamide], the IC50 was determined as 528 nM in assay [1]; 2470 nM in assay [2] (Homo sapiens, MVLN); 310 nM in assay [3]. The EC50 is 5.17e-06 M in the assay on ZR-75-1 cells (Homo sapiens, ZR-75-1, 144 h) and > 20000 nM in the assay with MDA-MB-436 cells (setting [4]).

With `CCS(=O)(=O)NC(=O)c1cc2ccc(N(C)C)cc2o1` [Example 61, 6-(Dimethylamino)-N-(ethanesulfonyl)-1-benzofuran-2-carboxamide], the IC50 in assay [1] is 9850 nM; in assay [2] (Homo sapiens, MVLN) it was > 20000 nM; in assay [3], 16100 nM. In addition, the EC50 in the assay with ZR-75-1 cells (Homo sapiens, ZR-75-1, 144 h) was 1.77e-05 M; in the assay with MDA-MB-436 cells (setting [4]), > 20000 nM.

Take `CN(C)c1ccc2cc(C(=O)NS(C)(=O)=O)oc2c1` [Example 63, 6-(Dimethylamino)-N-(methanesulfonyl)-1-benzofuran-2-carboxamide]: the IC50 in assay [1] was > 20000 nM; in assay [2] (Homo sapiens, MVLN), > 20000 nM; in assay [3], 16500 nM. Also, the EC50 was > 2e-05 M in the assay on ZR-75-1 cells (Homo sapiens, ZR-75-1, 144 h) and > 20000 nM with MDA-MB-436 cells (setting [4]).

`CN(C)c1ccc2cc(C(=O)NS(=O)(=O)c3ccccc3OC3CC3)oc2c1` [Example 65, N-[2-(Cyclopropyloxy)benzene-1-sulfonyl]-6-(dimethylamino)-1-benzofuran-2-carboxamide]: the IC50 worked out at 34.5 nM in assay [1]; 20.4 nM in assay [2] (Homo sapiens, MVLN); 28.3 nM in assay [3]. Also, the EC50 with ZR-75-1 cells (Homo sapiens, ZR-75-1, 144 h) is 4.44e-08 M; in the assay with MDA-MB-436 cells (setting [4]), > 20000 nM.

`CC(C)Oc1ccccc1S(=O)(=O)NC(=O)c1cc2ccc(N(C)C)cc2o1` [Example 66, 6-(Dimethylamino)-N-{2-[(propan-2-yl)oxy]benzene-1-sulfonyl}-1-benzofuran-2-carboxamide]: the IC50 in assay [1] worked out at 59.1 nM; in assay [2], 31 nM; in assay [3], 49.4 nM. Also, the EC50 was 5.47e-08 M with ZR-75-1 cells and > 20000 nM in the assay with MDA-MB-436 cells.

For `CCOc1ccc(C)cc1S(=O)(=O)NC(=O)c1cc2ccc(N(C)C)cc2o1` [Example 67, 6-(Dimethylamino)-N-(2-ethoxy-5-methylbenzene-1-sulfonyl)-1-benzofuran-2-carboxamide], the IC50 in assay [1] came to 118 nM; in assay [2] (Homo sapiens, MVLN), 40.2 nM; in assay [3], 42.9 nM. The EC50 was 4.08e-08 M with ZR-75-1 cells (Homo sapiens, ZR-75-1, 144 h) and > 20000 nM with MDA-MB-436 cells (setting [4]).

Take `CN(C)c1ccc2cc(C(=O)NS(=O)(=O)c3ccccc3OC(C)(C)C)oc2c1` [Example 68, N-(2-tert-butoxybenzene-1-sulfonyl)-6-(dimethylamino)-1-benzofuran-2-carboxamide]: the IC50 worked out at 84.5 nM in assay [1]; 51 nM in assay [2] (Homo sapiens, MVLN); 69.6 nM in assay [3]. Besides, the EC50 in the assay with ZR-75-1 cells (Homo sapiens, ZR-75-1, 144 h) was 8.44e-08 M; in the assay on MDA-MB-436 cells (setting [4]) it was > 20000 nM.

With `COc1ccc2cccnc2c1S(=O)(=O)NC(=O)c1cc2ccc(N(C)C)cc2o1` [Example 70, 6-(Dimethylamino)-N-(7-methoxyquinoline-8-sulfonyl)-1-benzofuran-2-carboxamide], the IC50 turned out to be 109 nM in assay [1]; 71.3 nM in assay [2] (Homo sapiens, MVLN); 122 nM in assay [3]. Also, the EC50 in the assay with ZR-75-1 cells (Homo sapiens, ZR-75-1, 144 h) was 1.63e-07 M; in the assay with MDA-MB-436 cells (setting [4]), > 20000 nM.

`CN(C)c1ccc2cc(C(=O)NS(=O)(=O)c3ccccc3OCC3CC3)oc2c1` [Example 71, N-[2-(Cyclopropylmethoxy)benzene-1-sulfonyl]-6-(dimethylamino)-1-benzofuran-2-carboxamide]: the IC50 in assay [1] was found to be 131 nM; in assay [2] (Homo sapiens, MVLN), 71.9 nM; in assay [3] it was 72.4 nM. Also, the EC50 in the assay on ZR-75-1 cells (Homo sapiens, ZR-75-1, 144 h) was 1.92e-07 M; with MDA-MB-436 cells (setting [4]) it was > 20000 nM.

Take `CN(C)c1ccc2cc(C(=O)NS(=O)(=O)c3ccccc3OCCF)oc2c1` [Example 72, 6-(Dimethylamino)-N-[2-(2-fluoroethoxy)benzene-1-sulfonyl]-1-benzofuran-2-carboxamide]: the IC50 in assay [1] was determined as 190 nM; in assay [2] (Homo sapiens, MVLN), 76.5 nM; in assay [3], 96.7 nM. For the same compound, the EC50 in the assay on ZR-75-1 cells (Homo sapiens, ZR-75-1, 144 h) is 1.31e-07 M; with MDA-MB-436 cells (setting [4]), > 20000 nM.

As for `CN(C)c1ccc2cc(C(=O)NS(=O)(=O)c3cccc4cccnc34)oc2c1` [Example 73, 6-(Dimethylamino)-N-(quinoline-8-sulfonyl)-1-benzofuran-2-carboxamide], the IC50 in assay [1] came to 78.5 nM; in assay [2] (Homo sapiens, MVLN) it was 99.4 nM; in assay [3], 117 nM. For the same compound, the EC50 with ZR-75-1 cells (Homo sapiens, ZR-75-1, 144 h) is 2.48e-07 M; in the assay with MDA-MB-436 cells (setting [4]), > 20000 nM.

For `CN(C)c1ccc2cc(C(=O)NS(=O)(=O)c3ccccc3OCC(F)(F)F)oc2c1` [Example 74, 6-(Dimethylamino)-N-[2-(2,2,2-trifluoroethoxy)benzene-1-sulfonyl]-1-benzofuran-2-carboxamide], the IC50 in assay [1] was 228 nM; in assay [2] (Homo sapiens, MVLN), 117 nM; in assay [3] it was 128 nM. The EC50 is 1.65e-07 M in the assay on ZR-75-1 cells (Homo sapiens, ZR-75-1, 144 h) and > 20000 nM in the assay on MDA-MB-436 cells (setting [4]).

As to `CN(C)c1ccc2cc(C(=O)NS(=O)(=O)c3ccccc3OCC(F)F)oc2c1` [Example 75, N-[2-(2,2-Difluoroethoxy)benzene-1-sulfonyl]-6-(dimethylamino)-1-benzofuran-2-carboxamide], the IC50 was found to be 246 nM in assay [1]; 130 nM in assay [2] (Homo sapiens, MVLN); 163 nM in assay [3]. In addition, the EC50 is 1.65e-07 M in the assay on ZR-75-1 cells (Homo sapiens, ZR-75-1, 144 h) and > 20000 nM in the assay with MDA-MB-436 cells (setting [4]).

As to `CC(C)COc1ccccc1S(=O)(=O)NC(=O)c1cc2ccc(N(C)C)cc2o1` [Example 76, 6-(Dimethylamino)-N-[2-(2-methylpropoxy)benzene-1-sulfonyl]-1-benzofuran-2-carboxamide], the IC50 in assay [1] worked out at 190 nM; in assay [2] (Homo sapiens, MVLN), 146 nM; in assay [3], 88.7 nM. Further, the EC50 in the assay with ZR-75-1 cells (Homo sapiens, ZR-75-1, 144 h) was 1.95e-07 M; with MDA-MB-436 cells (setting [4]), > 20000 nM.

For the compound `CC(C)c1ccccc1S(=O)(=O)NC(=O)c1cc2ccc(N(C)C)cc2o1` [Example 77, 6-(Dimethylamino)-N-[2-(propan-2-yl)benzene-1-sulfonyl]-1-benzofuran-2-carboxamide], the IC50 in assay [1] is 546 nM; in assay [2] (Homo sapiens, MVLN), 152 nM; in assay [3], 272 nM. Further, the EC50 in the assay with ZR-75-1 cells (Homo sapiens, ZR-75-1, 144 h) was 1.48e-06 M; with MDA-MB-436 cells (setting [4]) it was > 20000 nM.

(Values after patent US12357603B2, “Acyl sulfonamides for treating cancer” (Bayer Aktiengesellschaft, priority 2019, dated 2025).)
